This is an account of results in publication PMC6349869, “The palladacycle complex AJ-5 induces apoptotic cell death while reducing autophagic flux in rhabdomyosarcoma cells” (Cell Death Discovery, 2019).

What all share (assay type): cell-based, human
Assay [1] has as its system RD cells. Kind of assay: MTT cell viability assay, RD. The note with it: RD (eRMS), 48 h. As for the experimental part: (§1) RH30 human aRMS cells (kindly provided by Associate Professor Judith Davie, Southern Illinois University), AX-OH-1 human aRMS and FL-OH-1 human eRMS cells (kindly provided by Professor Stefan Bath, University of Cape Town) were cultured in Roswell Park Memorial Institute Medium (RPMI)-1640 (Sigma Aldrich, Missouri, USA). […] Cell morphology was monitored using an Olympus CKX41 inverted microscope (MSAC Ltd, UK) and imaged with an EVOS™ XL AMEX1000 Core Imaging System (Thermo Fisher Scientific, Massachusetts, USA).
(§2) Cells were seeded in 96-well plates and treated the next day with a range of AJ-5 concentrations (0.1–1.0 μM) or vehicle ([…]) for 48 h. Cell viability was measured using the 3-(4,5-dimethylthiazol-2-yl)-2,5-diphenyl-trazolium bromide (MTT) assay (11465007001; Sigma Aldrich) according to the manufacturer’s instructions. Mean cell viability was calculated as a percentage of the mean vehicle control. At least three independent experiments in quadruplicate were performed from which the half maximal inhibitory concentration (IC50) was determined using GraphPad Prism version 6.0 (GraphPad Software, California, USA). The selectivity index (SI) was determined by dividing the IC50 of a normal cell line by the IC50 of a cancer cell line.

Assay [2] concerns SW982 cells. In words: MTT cell viability assay, SW982 synovial sarcoma. The note with it: 48 h. The method, then: as §1, §2
For orientation: Formazan colour is commonly taken as a measure of viable cells.

Assay [3] deals with γH2AX, p-ATM, p-Chk2, p-p38, p21 in RH30 and RD cells. In words: Western blotting and immunocytochemistry of DNA damage and stress pathway proteins. As for the experimental part:
(§3) Cells were lysed at 4 °C in whole-cell lysis buffer (0.125 M Tris-HCl pH 6.8, 4% SDS, 0.2% glycerol, 0.1% β-mercaptoethanol and a pinch of bromophenol blue) and boiled for 10 min. Proteins were resolved by SDS-PAGE (6–15% gels) and transferred to Hybond ECL membranes (Amersham, UK). The membranes were incubated with primary antibodies: rabbit polyclonal antibodies to phospho-histone H2A.X (Ser139) (#2577), phospho-chk2 (Thr68) (#221), phospho-p38 MAPK (Thr180/Tyr182) (#9211), cleaved caspase-3 (Asp175) (#9661), PARP (#9542), caspase-9 (#9502), LC3B (#2775), p38 MAPK (#9212), rabbit monoclonal antibody to cleaved caspase-7 (Asp198) (D6H1) (#8438), mouse monoclonal antibodies to phospho-ATM (Ser1981) (D6H9) (#5883), Cyclin B1 (V152) (#4135), Caspase-8 (1C12) (#9746), SQSTM1/p62 (D5L7G) (#88588) from Cell Signaling Technology (Massachusetts, USA); mouse monoclonal antibody to p53 (DO-1) (sc-126), rabbit polyclonal antibodies to p21 (C-19) (sc-397), cyclin A (H-432) (sc-751), cyclin B1 (H-433)(sc-752), PARP-1 (H-250) (sc-7150) from Santa Cruz Biotechnology (Texas, USA); rabbit polyclonal antibody to p38 MAP kinase (M0800) from Sigma Aldrich. After primary antibody incubation, membranes were incubated with goat anti-rabbit or goat anti-mouse HRP-conjugated secondary antibodies (Bio-Rad Laboratories, California, USA). Antibody reactive proteins were visualized by enhanced chemiluminescence using SuperSignal West Pico Chemiluminescent Substrate Kit (Thermo Fisher Scientific) or WesternBright ECL HRP Substrate Kit (Advansta, California, USA). Densitometry readings were obtained using ImageJ v1.50i[58] and protein expression levels were represented as a ratio of protein of interest/p38 loading control normalized to the vehicletreated control sample where appropriate. All blots are representative of at least two independent repeats.
Cells were plated on glass coverslips and treated with IC50 AJ-5 or vehicle. […] For quantification, mean fluorescence was measured from at least 20 fields of view per treatment condition and pooled from three independent repeats.

Assay [4] relates to RH30 and RD cells. Kind of assay: Cell cycle analysis (FACS, PI) and cyclin western blots. The method, then: as §3, with “After primary antibody incubation, membranes were incubated with goat anti-rabbit or goat anti-mouse HRP-conjugated secondary antibodies (Bio-Rad Laboratories, California, USA). Antibody reactive proteins were visualized by enhanced chemiluminescence using SuperSignal West Pico Chemiluminescent Substrate Kit (Thermo Fisher Scientific) or WesternBright ECL HRP Substrate Kit (Advansta, California, USA).” left out, “All blots are representative of at least two independent repeats.” left out
On the technique in general: Immunoblotting shows a protein as a band on a membrane.

In general, IC50 refers to the concentration that inhibits the measured activity by half. The low end stands for greater potency, the high end for weaker potency. As to `CC(C)c1cccc(C(C)C)c1[N+]1=Cc2cccc[c]2[Pd-2]1([Cl])[P+](CC[P+](c1ccccc1)(c1ccccc1)[Pd-2]1([Cl])[c]2ccccc2C=[N+]1c1c(C(C)C)cccc1C(C)C)(c1ccccc1)c1ccccc1` (stereo not shown) [AJ-5], the IC50 in assay [1] was not above 200 nM; in assay [2], less than 300 nM. The γH2AX levels entry in assay [3] (0.1 µM or IC50, 24 and 48 h, western blotting) is reported as “dose-dependent increase”. In addition, the p21 levels entry in assay [3] (IC50 concentrations, pronounced after 24 h) is “increased”. In assay [3] (western blotting), the “Levels of phosphorylated ATM, CHK2 and p38” value is given as “increased levels”. In addition, the Cell cycle progression result in assay [4] (IC50, 24 and 48 h, FACS) is “induces a G1 cell cycle arrest”. The “Levels of cyclin A and cyclin B” value in assay [4] (western blotting) is given as “decrease”.
